In PMC7419507, “In vitro Cas9-assisted editing of modular polyketide synthase genes to produce desired natural product derivatives” (Nature Communications, 2020):
“And” between values parts separate entries of the source, which are not always exact repeats. Equal entries are not always repeated.

Tests used:
Type in all cases: cell-based
[1] = tested on: Jurkat, SKOV-3 and MESO-1 cells; test: Cytotoxicity assay, statements for all tested cell lines together; conditions: against the tested cell lines (Jurkat, SKOV-3, MESO-1)
Procedure: (§1) Jurkat cells were cultured in RPMI1640 medium supplemented with 10% foetal bovine serum, penicillin (50 U/ml), streptomycin (50 μg/ml), and Glutamax. SKOV-3 cells were cultured in DMEM medium supplemented with 10% fetal bovine serum, penicillin (50 U/ml), and streptomycin (50 μg/ml). MESO-1 cells were cultured in RPMI1640 medium supplemented with 10% fetal bovine serum, penicillin (50 U/ml), and streptomycin (50 μg/ml). All cell lines were seeded in a 384-well plate at a density of 1000 cells/well in 20 μl of media and incubated at 37 °C in a humidified incubator with 5% CO2. After 4 h, 2-fold dilution samples resolved in DMSO were added to the cell culture at the concentration of 0.5% (0.1 μl) and incubated for 72 h. Cell viabilities were measured using a CellTiter-Glo luminescent cell viability assay and EnVision multilabel plate reader.

[2] = biological target: T1, FKBP12 and mTOR (Homo sapiens, UniProt P42345+P62942); test: Fluoppi analysis: induction of FKBP12-mTOR complex formation in transfected HeLa cells; conditions: for Foci intensity: raw data, one replicate per line
T1 construct: host or cells: HeLa cells
T1 sequence (P42345 2025-2114 limits assumed): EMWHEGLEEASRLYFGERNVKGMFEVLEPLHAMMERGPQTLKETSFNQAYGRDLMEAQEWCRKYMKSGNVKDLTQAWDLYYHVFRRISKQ
T1 sequence (P62942 whole entry): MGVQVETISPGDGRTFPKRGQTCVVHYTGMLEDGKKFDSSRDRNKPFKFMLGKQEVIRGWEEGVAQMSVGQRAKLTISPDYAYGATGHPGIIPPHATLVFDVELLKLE
Procedure: Fluoppi harbours a tetrameric fluorescent protein hAG tag and an oligomeric assembly helper Ash tag to create detectable fluorescent foci in cells when there are interactions between two proteins fused to each tag[32].
HeLa cells were maintained in DMEM (Fujifilm Wako, Osaka, Japan) supplemented with 10% FBS (Thermo Fisher Scientific, MA, USA) and 1% of Penicillin-Streptomycin (Thermo Fisher Scientific) in a humidified incubator with 5% CO2 at 37 °C. Harvested cells were plated at 1 × 10^6 cells/well in 6-well plate and incubated for 6 h. Then each 1.25 µg of phAG-mTOR and pAsh-FKBP12 (Medical and Biological Laboratories Co., Ltd., Aichi, Japan) was co-transfected with Lipofectamine 2000 reagent (Thermo Fisher Scientific) overnight. Next day, transfected cells were harvested and seeded in 384-well optical-bottom microplate (PerkinElmer, MA, USA) at a density of 3000 cells/well. After the 24 h incubation at 37 °C, cells were treated with different concentrations of compounds for 1 h. Cells were then fixed with 4% paraformaldehyde and stained with 1 µg/ml of Hoechst33342 (Thermo Fisher Scientific). Cell images of 9 visual fields/well were acquired with ×20 objective lens in Opera Phenix High-Content Screening System (PerkinElmer) and analysed by Harmony4.9 software (PerkinElmer). Because protein-protein interactions are quantified by measuring the aggregation of fluorescent elements in foci, fluorescent intensity in foci was normalised by total fluorescent intensity in each cell. EC50 values were calculated using TIBCO Spotfire 10.3 software (PerkinElmer).

[3] = tested on: T lymphoma Jurkat cells; test: Cytotoxicity assay (CellTiter-Glo, 72 h), Jurkat; conditions: raw data (replicates)
Procedure: as §1

[4] = tested on: malignant pleural mesothelioma MESO-1 cells; test: Cytotoxicity assay (CellTiter-Glo, 72 h), MESO-1; conditions: raw replicate data
Procedure: as §1

[5] = tested on: human ovarian adenocarcinoma SKOV-3 cells; test: Cytotoxicity assay (CellTiter-Glo, 72 h), SKOV-3; conditions: raw replicate data
Procedure: as §1

Structure (SMILES): COC1CC2CCC(C)C(O)(O2)C(=O)C(=O)N2CCCCC2C(=O)OC(C(C)CC2CCC(O)C(OC)C2)CC(O)CC(=O)C(C)CC(C)C=CC=CC=C1C (stereo not shown) [Compound 11]
- Concentration at which cytotoxic activities were shown [1]: over 10 µM
- PPI-inducing (binding enhancing) activity between FKBP12 and mTOR compared with rapamycin (1), in words ([2]; Fluoppi): completely lost the ability to induce the formation of FKBP12-mTOR complex
- Foci intensity ([2]; conc 9.53674e-5 uM): 0.02286 and 0.01106 and 0.01492
- Foci intensity ([2]; conc 0.000190735 uM): 0.009983 and 0.01574 and 0.02887
- Foci intensity ([2]; conc 0.00038147 uM): 0.01899 and 0.01621 and 0.01221
- Foci intensity ([2]; conc 0.000762939 uM): 0.002009 and 0.003868 and 0.01862
- Foci intensity ([2]; conc 0.00152588 uM): 0.02126 and 0.01678 and 0.003092
- Foci intensity ([2]; conc 0.00305176 uM): 0.0138 and 0.01691 and 0.01576
- Foci intensity ([2]; conc 0.00610352 uM): 0.03172 and 0.01801 and 0.0222
- Foci intensity ([2]; conc 0.012207 uM): 0.01093 and 0.01362 and 0.01381
- Foci intensity ([2]; conc 0.0244141 uM): 0.01964 and 0.01491 and 0.01835
- Foci intensity ([2]; conc 0.0488281 uM): 0.004003 and 0.01339 and 0.01507
- Foci intensity ([2]; conc 0.0976562 uM): 0.01375 and 0.009337 and 0.02775
- Foci intensity ([2]; conc 0.195312 uM): 0.0177 and 0.02519 and 0.008414
- Foci intensity ([2]; conc 0.390625 uM): 0.01709 and 0.006803 and 0.01525
- Foci intensity ([2]; conc 0.78125 uM): 0.01284 and 0.02644 and 0.03084
- Foci intensity ([2]; conc 1.5625 uM): 0.02173 and 0.02485 and 0.03636
- Foci intensity ([2]; conc 3.125 uM): 0.02309 and 0.03313 and 0.02928
- Foci intensity ([2]; conc 6.25 uM): 0.01525 and 0.02728 and 0.02945
- Foci intensity ([2]; conc 12.5 uM): 0.02884 and 0.0389 and 0.01245
- Foci intensity ([2]; conc 25 uM): 0.03878 and 0.02312 and 0.004037
- Foci intensity ([2]; conc 50 uM): 0.02187 and 0.0201 and 0.02169
- Jurkat viability (%) ([3]; conc 9.53674e-5 uM): 99.6% and 105.7% and 104.8%
- Jurkat viability (%) ([3]; conc 0.000190735 uM): 102.5% and 104.1% and 102.4%
- Jurkat viability (%) ([3]; conc 0.00038147 uM): 103.5% and 109.4% and 98.8%
- Jurkat viability (%) ([3]; conc 0.000762939 uM): 99.9% and 101.1% and 97.3%
- Jurkat viability (%) ([3]; conc 0.00152588 uM): 100.9% and 100.4% and 103.9%
- Jurkat viability (%) ([3]; conc 0.00305176 uM): 102.0% and 103.4% and 101.1%
- Jurkat viability (%) ([3]; conc 0.00610352 uM): 100.0% and 104.2% and 103.2%
- Jurkat viability (%) ([3]; conc 0.012207 uM): 106.8% and 106.3% and 106.1%
- Jurkat viability (%) ([3]; conc 0.0244141 uM): 104.8% and 107.2% and 106.6%
- Jurkat viability (%) ([3]; conc 0.0488281 uM): 97.2% and 96.3% and 106.5%
- Jurkat viability (%) ([3]; conc 0.0976562 uM): 106.1% and 104.1% and 111.0%
- Jurkat viability (%) ([3]; conc 0.195312 uM): 100.5% and 100.4% and 103.3%
- Jurkat viability (%) ([3]; conc 0.390625 uM): 100.9% and 100.4% and 105.6%
- Jurkat viability (%) ([3]; conc 0.78125 uM): 94.7% and 91.5% and 97.0%
- Jurkat viability (%) ([3]; conc 1.5625 uM): 93.8% and 86.6% and 86.2%
- Jurkat viability (%) ([3]; conc 3.125 uM): 76.9% and 80.2% and 77.8%
- Jurkat viability (%) ([3]; conc 6.25 uM): 68.8% and 66.4% and 70.4%
- Jurkat viability (%) ([3]; conc 12.5 uM): 58.6% and 56.1% and 57.5%
- Jurkat viability (%) ([3]; conc 25 uM): 45.9% and 41.4% and 49.3%
- Jurkat viability (%) ([3]; conc 50 uM): 12.3% and 11.6% and 15.7%
- MESO1 viability (%) ([4]; conc 9.53674e-5 uM): 103.9% and 103.5% and 98.5%
- MESO1 viability (%) ([4]; conc 0.000190735 uM): 96.6% and 99.4% and 97.9%
- MESO1 viability (%) ([4]; conc 0.00038147 uM): 98.3% and 99.6% and 101.3%
- MESO1 viability (%) ([4]; conc 0.000762939 uM): 105.2% and 96.5% and 100.7%
- MESO1 viability (%) ([4]; conc 0.00152588 uM): 101.4% and 100.3% and 96.4%
- MESO1 viability (%) ([4]; conc 0.00305176 uM): 100.9% and 90.0% and 104.4%
- MESO1 viability (%) ([4]; conc 0.00610352 uM): 103.9% and 99.7% and 97.3%
- MESO1 viability (%) ([4]; conc 0.012207 uM): 100.4% and 97.8% and 98.7%
- MESO1 viability (%) ([4]; conc 0.0244141 uM): 97.0% and 101.2% and 106.3%
- MESO1 viability (%) ([4]; conc 0.0488281 uM): 98.5% and 98.3% and 96.0%
- MESO1 viability (%) ([4]; conc 0.0976562 uM): 105.6% and 104.1% and 98.8%
- MESO1 viability (%) ([4]; conc 0.195312 uM): 98.6% and 98.7% and 91.4%
- MESO1 viability (%) ([4]; conc 0.390625 uM): 103.9% and 97.5% and 98.1%
- MESO1 viability (%) ([4]; conc 0.78125 uM): 94.8% and 90.3% and 84.8%
- MESO1 viability (%) ([4]; conc 1.5625 uM): 93.0% and 93.7% and 91.6%
- MESO1 viability (%) ([4]; conc 3.125 uM): 84.8% and 80.8% and 88.7%
- MESO1 viability (%) ([4]; conc 6.25 uM): 89.0% and 88.1% and 84.7%
- MESO1 viability (%) ([4]; conc 12.5 uM): 82.3% and 77.8% and 85.2%
- MESO1 viability (%) ([4]; conc 25 uM): 76.7% and 80.1% and 74.6%
- MESO1 viability (%) ([4]; conc 50 uM): 57.9% and 55.6% and 52.8%
- SKOV3 viability (%) ([5]; conc 9.53674e-5 uM): 103.0% and 111.8% and 102.7%
- SKOV3 viability (%) ([5]; conc 0.000190735 uM): 100.4% and 96.2% and 95.8%
- SKOV3 viability (%) ([5]; conc 0.00038147 uM): 103.1% and 104.5% and 105.0%
- SKOV3 viability (%) ([5]; conc 0.000762939 uM): 97.9% and 100.1% and 100.0%
- SKOV3 viability (%) ([5]; conc 0.00152588 uM): 106.4% and 105.2% and 101.9%
- SKOV3 viability (%) ([5]; conc 0.00305176 uM): 98.6% and 97.0% and 99.4%
- SKOV3 viability (%) ([5]; conc 0.00610352 uM): 109.3% and 103.3% and 106.5%
- SKOV3 viability (%) ([5]; conc 0.012207 uM): 99.6% and 97.7% and 101.2%
- SKOV3 viability (%) ([5]; conc 0.0244141 uM): 103.3% and 106.1% and 104.6%
- SKOV3 viability (%) ([5]; conc 0.0488281 uM): 98.5% and 100.3% and 98.3%
- SKOV3 viability (%) ([5]; conc 0.0976562 uM): 105.4% and 104.9% and 104.3%
- SKOV3 viability (%) ([5]; conc 0.195312 uM): 95.0% and 97.7% and 100.1%
- SKOV3 viability (%) ([5]; conc 0.390625 uM): 104.0% and 107.6% and 105.3%
- SKOV3 viability (%) ([5]; conc 0.78125 uM): 100.0% and 99.8% and 98.6%
- SKOV3 viability (%) ([5]; conc 1.5625 uM): 98.3% and 102.6% and 98.7%
- SKOV3 viability (%) ([5]; conc 3.125 uM): 98.0% and 99.6% and 88.9%
- SKOV3 viability (%) ([5]; conc 6.25 uM): 95.1% and 93.6% and 91.3%
- SKOV3 viability (%) ([5]; conc 12.5 uM): 92.5% and 90.6% and 91.1%
- SKOV3 viability (%) ([5]; conc 25 uM): 91.0% and 92.9% and 94.1%
- SKOV3 viability (%) ([5]; conc 50 uM): 83.8% and 79.2% and 82.0%
